In publication PMC10320843 (2023):

How the values were obtained:
[1] = tested on: F21T (DNA, G4) GGGTTAGGGTTAGGGTTAGGG; experiment: FRET-melting; details: K+ (CacoK10, Table S1); CacoK10 buffer; 1 μM compound, 0.2 μM nucleic acid; no competitor
[2] = tested on: F-Myc-T (DNA, G4) GAGGGTGGGGAGGGTGGGGAAG; experiment: FRET-melting; details: K+ (CacoK1, Table S1); CacoK1 buffer; 1 μM compound, 0.2 μM nucleic acid; no competitor
[3] = tested on: F-Kit2-T (DNA, G4) CGGGCGGGCGCGAGGGAGGGG; experiment: FRET-melting; details: buffer not stated in main text
[4] = tested on: F-TERRA-T (RNA, G4) GGGUUAGGGUUAGGGUUAGGG; experiment: FRET-melting; details: K+ (CacoK1, Table S1); CacoK1 buffer; 1 μM compound, 0.2 μM nucleic acid; no competitor
[5] = tested on: F-VEGF-T (RNA, G4) GGAGGAGGGGAGGAGGA; experiment: FRET-melting; details: K+ (CacoK1, Table S1); CacoK1 buffer; 1 μM compound, 0.2 μM nucleic acid; no competitor
[6] = tested on: F-NRAS-T (RNA, G4) GGGAGGGGCGGGUCUGGG; experiment: FRET-melting; details: 1 μM compound, 0.2 μM RNA; no competitor; buffer not stated
[7] = tested on: 5'Cy5-Myc (DNA, G4) GAGGGTGGGGAGGGTGGGGAAG; experiment: Cy5 fluorescence quenching titration; details: 50 mM TrisHCl/Triton buffer (Table S1), 25 °C; 20 nM DNA; apparent
[8] = tested on: F-22AG (DNA, G4) AGGGTTAGGGTTAGGGTTAGGG; experiment: streptavidin bead pull-down, FAM fluorescence; details: Mg2+ (concentration in Table S1); 20 mM TrisHCl/MgCl2 buffer, 25 °C; 10 μM compound, 1 μM nucleic acid; no TASQ = 1
[9] = tested on: F-Myc (DNA, G4) GAGGGTGGGGAGGGTGGGGAAG; experiment: streptavidin bead pull-down, FAM fluorescence; details: Mg2+ (concentration in Table S1); 20 mM TrisHCl/MgCl2 buffer, 25 °C; 10 μM compound, 1 μM nucleic acid; no TASQ = 1
[10] = tested on: F-duplex (DNA, hairpin) TATAGCTATATTTTTTTATAGCTATA; experiment: streptavidin bead pull-down, FAM fluorescence; details: Mg2+ (concentration in Table S1); 20 mM TrisHCl/MgCl2 buffer, 25 °C; 10 μM compound, 1 μM DNA; no TASQ = 1
[11] = tested on: F-TERRA (RNA, G4) GGGUUAGGGUUAGGGUUAGGG; experiment: streptavidin bead pull-down, FAM fluorescence; details: Mg2+ (concentration in Table S1); 20 mM TrisHCl/MgCl2 buffer, 25 °C; 10 μM compound, 1 μM nucleic acid; no TASQ = 1
[12] = tested on: F-VEGF (RNA, G4) GGAGGAGGGGAGGAGGA; experiment: streptavidin bead pull-down, FAM fluorescence; details: Mg2+ (concentration in Table S1); 20 mM TrisHCl/MgCl2 buffer, 25 °C; 10 μM compound, 1 μM nucleic acid; no TASQ = 1
[13] = tested on: F-NRAS (RNA, G4) GGGAGGGGCGGGUCUGGG; experiment: streptavidin bead pull-down, FAM fluorescence; details: Mg2+ (concentration in Table S1); 20 mM TrisHCl/MgCl2 buffer, 25 °C; 10 μM compound, 1 μM nucleic acid; no TASQ = 1
[14] = tested on: G4-strand (97-nt ODN) (DNA, G4) TAGCCATTCAGCCGTAACAGGCAGTGGAAGAGAGACAGACAGGGCAGGGCAGGGCAGGGCAGTACAGTAGAACCTAATGGTGTTTGATGGTATCTAA; experiment: streptavidin bead pull-down, qPCR (SYBR green); details: 40 μM compound, 4 μM DNA; fluorescence difference from no TASQ

Row | Compound | ΔT1/2 [1] | ΔT1/2 [2] | ΔT1/2 [3] | ΔT1/2 [4] | ΔT1/2 [5] | ΔT1/2 [6] | appKD [7] | fold enrichment [8] | fold enrichment [9] | fold enrichment [10] | fold enrichment [11] | fold enrichment [12] | fold enrichment [13] | ΔFI [14]
1 | C#CCCCC(=O)NCC1CN(CCCCCNC(=O)CN(CCN)C(=O)Cn2cnc3c(=O)[nH]c(N)nc32)CCN(CCCCCNC(=O)CN(CCN)C(=O)Cn2cnc3c(=O)[nH]c(N)nc32)CCN(CCCCCNC(=O)CN(CCN)C(=O)Cn2cnc3c(=O)[nH]c(N)nc32)CCN1CCCCCNC(=O)CN(CCN)C(=O)Cn1cnc2c(=O)[nH]c(N)nc21 (centres unmarked) | 2.5 ± 0.2 °C | 5.3 ± 0.3 °C | 5.8 ± 0.2 °C | 11.0 ± 0.9 °C | 11.9 ± 0.4 °C | 11.8 ± 0.7 °C | 1.44 ± 0.1 µM |  |  |  |  |  |  | 
2 | C[n+]1cc(NC(=O)c2ccc3ccc4ccc(C(=O)Nc5cc6ccccc6[n+](C)c5)nc4c3n2)cc2ccccc21 |  |  |  |  |  |  | 0.0577 ± 0.0002 µM |  |  |  |  |  |  | 
3 | NCCN(CC(=O)NCCCCCN1CCN(CCCCCNC(=O)CN(CCN)C(=O)Cn2cnc3c(=O)[nH]c(N)nc32)CCN(CCCCCNC(=O)CN(CCN)C(=O)Cn2cnc3c(=O)[nH]c(N)nc32)C(CNC(=O)CCCC[C@@H]2SC[C@@H]3NC(=O)N[C@@H]32)CN(CCCCCNC(=O)CN(CCN)C(=O)Cn2cnc3c(=O)[nH]c(N)nc32)CC1)C(=O)Cn1cnc2c(=O)[nH]c(N)nc21 (some centres unmarked) |  |  |  |  |  |  | 1.01 ± 0.1 µM | 15.9 ± 0.9 fold | 21.5 ± 0.1 fold | 0.9 ± 0.2 fold | 4.0 ± 0.0 fold | 8.2 ± 0.2 fold | 5.2 ± 0.9 fold | 457
4 | [N-]=[N+]=NCCCCCC(=O)NCC1CN(CCCCCNC(=O)CN(CCN)C(=O)Cn2cnc3c(=O)[nH]c(N)nc32)CCN(CCCCCNC(=O)CN(CCN)C(=O)Cn2cnc3c(=O)[nH]c(N)nc32)CCN(CCCCCNC(=O)CN(CCN)C(=O)Cn2cnc3c(=O)[nH]c(N)nc32)CCN1CCCCCNC(=O)CN(CCN)C(=O)Cn1cnc2c(=O)[nH]c(N)nc21 (centres unmarked) | 2.2 ± 0.3 °C | 6.4 ± 0.2 °C | 7.7 ± 1.0 °C | 12.4 ± 0.6 °C | 11.3 ± 0.4 °C | 14.6 ± 1.1 °C | 0.90 ± 0.1 µM |  |  |  |  |  |  | 
